In one assay the target is PTGER4 (EP4) (Homo sapiens (Human), UniProt P35408). The assay can be described thus: cell-based.
Another assay concerns the target EP2 (Homo sapiens (Human), UniProt P43116). Briefly: hEP2 cAMP assay (SF295 glioblastoma cells, HTRF cAMP). Particulars: antagonistic activity. It is filed as cell-based. A digest of the protocol:
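PGE2-driven cAMP accumulation was measured by HTRF in SF295 cells, which express endogenous EP2 only. Cells in assay buffer with 2 mM IBMX were pre-incubated 45 min at RT, then incubated 30 min at RT. Detection used competition between cellular cAMP and d2-cAMP for a cryptate anti-cAMP antibody.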

A further assay deals with EP4 (Homo sapiens (Human), UniProt P35408). The assay can be described thus: hEP4 cAMP assay (BT549 breast cancer cells, HTRF cAMP). Format: cell-based. Particulars: antagonistic activity, PGE2 6 nM. In short, it runs like this:
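cAMP accumulation quantified by HTRF competition between cellular cAMP and d2-labeled cAMP for cryptate anti-cAMP antibody. Cells: endogenously EP4-expressing BT549, buffer with 2 mM IBMX; 45 min RT compound preincubation preceded 30 min RT challenge with PGE2 at 6 nM final.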
On the technique in general: Changes in cAMP serve as a functional read-out for many G protein-coupled receptors.

The target of another assay is PTGER2 (EP2) (Homo sapiens (Human), UniProt P43116). Briefly: hEP2 b-arrestin assay (PathHunter HEK 293 PTGER2 b-arrestin cells). It is filed as cell-based. The following applies: antagonistic activity, beta-arrestin assay; read-out: hEP2 b-arr IC50. The method, then: Plate is pre-incubated 15 minutes at 37° C. Then five microliters of PGE2 (final conc. 5 μM) are transferred into the assay plate. Plate is incubated 120 minutes at 37° C.
Chain of PTGER2 (EP2) (P43116 whole entry): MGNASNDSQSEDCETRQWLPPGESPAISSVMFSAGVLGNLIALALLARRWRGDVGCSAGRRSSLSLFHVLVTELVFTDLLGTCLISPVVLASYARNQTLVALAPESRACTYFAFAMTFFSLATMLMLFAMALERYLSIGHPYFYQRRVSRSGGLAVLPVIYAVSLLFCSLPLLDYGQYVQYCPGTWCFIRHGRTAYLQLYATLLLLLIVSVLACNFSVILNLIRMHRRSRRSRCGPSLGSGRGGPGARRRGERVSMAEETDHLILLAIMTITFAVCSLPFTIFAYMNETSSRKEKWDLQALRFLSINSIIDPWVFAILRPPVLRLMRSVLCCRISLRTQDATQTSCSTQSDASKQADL
(each concentration is measured in duplicate)

pIC50: −log10 of the molar value.

Chain of EP4 (P35408 whole entry): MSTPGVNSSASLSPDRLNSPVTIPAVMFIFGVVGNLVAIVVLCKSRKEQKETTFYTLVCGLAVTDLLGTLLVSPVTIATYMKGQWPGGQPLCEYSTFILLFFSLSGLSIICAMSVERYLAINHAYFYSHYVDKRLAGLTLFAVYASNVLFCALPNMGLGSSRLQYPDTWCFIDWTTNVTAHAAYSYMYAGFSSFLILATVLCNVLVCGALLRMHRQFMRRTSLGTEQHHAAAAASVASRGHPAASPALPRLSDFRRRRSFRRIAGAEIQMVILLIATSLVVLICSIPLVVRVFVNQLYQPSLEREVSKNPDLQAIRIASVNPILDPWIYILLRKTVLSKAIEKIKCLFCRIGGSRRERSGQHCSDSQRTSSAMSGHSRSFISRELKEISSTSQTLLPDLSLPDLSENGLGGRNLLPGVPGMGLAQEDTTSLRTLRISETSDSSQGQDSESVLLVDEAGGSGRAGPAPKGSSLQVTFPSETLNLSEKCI
Chain of PTGER4 (EP4) (P35408 whole entry): as above
Chain of EP2 (P43116 whole entry): as the sequence (P43116 whole entry) above

With `CCCCOc1cc(-c2cc(NCCc3ccc4ccccc4c3C)ncn2)cc(F)c1C(=O)O` [Ex 150], the negative-log IC50 (pIC50) – broadly, the negative decadic logarithm of the IC50, by convention in mol/L – against PTGER4 (EP4) is 6.65; on EP2, 6.66; at EP4, 6.84; at PTGER2 (EP2), 6.64.

In the case of `CCOc1cc(-c2cc(NCCc3cc4ccoc4cc3F)ncn2)ccc1OCC(=O)O` [Ex 142, (2-Ethoxy-4-{6-[2-(6-fluoro-benzofuran-5-yl)-ethylamino]-pyrimidin-4-yl}-phenoxy)-acetic acid], the negative logarithm of the IC50 (pIC50) against PTGER4 (EP4) is 6.74; on EP2, 6.75; on EP4, 6.90; at PTGER2 (EP2), 6.92.

Consider `CCOc1cc(-c2cc(NCCc3cc4c(cc3C)OCCO4)ncn2)sc1-c1noc(=O)[nH]1` [Example 341, 3-(3-Ethoxy-5-{6-[2-(7-methyl-2,3-dihydro-benzo[1,4]dioxin-6-yl)-ethylamino]-pyrimidin-4-yl}-thiophen-2-yl)-[1,2,4]oxadiazol-5(4H)-one], for which the pIC50 is 7.85 at PTGER4 (EP4), 7.39 on EP2, 7.44 on EP4 and 7.92 on PTGER2 (EP2).

Take `CCOc1cc(-c2cc(NCCc3cc4c(cc3OC(F)F)OCO4)ncn2)sc1C(=O)O` [Ex 119, 5-{6-[2-(6-Difluoromethoxy-benzo[1,3]dioxol-5-yl)-ethylamino]-pyrimidin-4-yl}-3-ethoxy-thiophene-2-carboxylic acid]: the pIC50 was 6.95 at PTGER4 (EP4), 7.39 against EP2, 7.05 at EP4 and 7.49 at PTGER2 (EP2).

Consider `COc1cc2c(cc1CCNc1cc(-c3ccc(C(=O)O)c(SC)c3)ncn1)OCO2` [Ex 277, 4-{6-[2-(6-Methoxy-benzo[1,3]dioxol-5-yl)-ethylamino]-pyrimidin-4-yl}-2-methylsulfanyl-benzoic acid], for which the pIC50 against PTGER4 (EP4) is 6.36; at EP2 it was 7.85; at EP4, 6.49; on PTGER2 (EP2), 7.29.

On to `CCOc1cc(-c2cc(NCCc3ccc4cc[nH]c4c3)ncn2)sc1C(=O)O` [Ex 24, 3-Ethoxy-5-{6-[2-(1H-indol-6-yl)-ethylamino]-pyrimidin-4-yl}-thiophene-2-carboxylic acid], for which the pIC50 against PTGER4 (EP4) was 7.74; on EP2, 7.28; at EP4 it was 7.82; at PTGER2 (EP2), 7.14.

Take `CCOc1cc(-c2cc(NCCc3ccc4cc[nH]c4c3)ncn2)sc1-c1noc(=O)[nH]1` [Example 343, 3-(3-Ethoxy-5-{6-[2-(1H-indol-6-yl)-ethylamino]-pyrimidin-4-yl}-thiophen-2-yl)-[1,2,4]oxadiazol-5(4H)-one]: the pIC50 at PTGER4 (EP4) is 8.70; at EP2, 7.64; on EP4 it was 7.92; at PTGER2 (EP2) it was 8.05.

For the molecule `CCOc1cc(-c2cc(NCCc3ccc4[nH]ccc4c3)ncn2)sc1-c1noc(=O)[nH]1` [Example 339, 3-(3-Ethoxy-5-{6-[2-(1H-indol-5-yl)-ethylamino]-pyrimidin-4-yl}-thiophen-2-yl)-[1,2,4]oxadiazol-5(4H)-one], the pIC50 is 8.00 at PTGER4 (EP4), 7.05 against EP2, 7.66 against EP4 and 7.18 on PTGER2 (EP2).

Take `CCOc1cc(-c2cc(NCCc3ccc4c(c3)OCO4)ncn2)sc1C(=O)O` [Ex 111, 5-[6-(2-Benzo[1,3]dioxol-5-yl-ethylamino)-pyrimidin-4-yl]-3-ethoxy-thiophene-2-carboxylic acid]: the pIC50 is 7.05 against PTGER4 (EP4), 7.31 against EP2, 7.09 on EP4 and 6.94 at PTGER2 (EP2).

Regarding `CCOc1cc(-c2cc(NCCc3cc4ccsc4cc3C)ncn2)ccc1CC(=O)O` [Ex 290], the pIC50 at PTGER4 (EP4) is 6.36; at EP2, 6.71; on EP4, 6.28; at PTGER2 (EP2), 6.79.

With `CCOc1cc(-c2cc(NCCc3c(OCC)cc4ccccc4c3F)ncn2)ccc1C(=O)O` [Example 436, 2-Ethoxy-4-{6-[2-(3-ethoxy-1-fluoro-naphthalen-2-yl)-ethylamino]-pyrimidin-4-yl}-benzoic acid], the negative-log IC50 (pIC50) against PTGER4 (EP4) was 7.51; on EP2, 6.96; at EP4 (BT549 cells), 7.24; on PTGER2 (EP2), 7.80.

`COc1cc2c(cc1CCNc1cc(-c3ccc4oc(C(=O)O)cc4c3)ncn1)OCCO2` [Ex 93, 5-{6-[2-(7-Methoxy-2,3-dihydro-benzo[1,4]dioxin-6-yl)-ethylamino]-pyrimidin-4-yl}-benzofuran-2-carboxylic acid]: the pIC50 against PTGER4 (EP4) was 5.90; on EP2, 7.07; against EP4, 6.93; on PTGER2 (EP2) it was 6.56.

Regarding `COc1cc2occc2cc1CCNc1cc(-c2ccc(C(=O)O)c(SC)c2)ncn1` [Ex 193, 4-{6-[2-(6-Methoxy-benzofuran-5-yl)-ethylamino]-pyrimidin-4-yl}-2-methylsulfanyl-benzoic acid], the negative-log IC50 (pIC50) was 6.46 at PTGER4 (EP4), 7.92 at EP2, 6.68 on EP4 and 8.00 at PTGER2 (EP2).

Consider `CCOc1cc(-c2cc(NCCc3cc(Cl)c4sccc4c3)ncn2)ccc1C(=O)O` [Example 358, 4-{6-[2-(7-Chloro-benzo[b]thiophen-5-yl)-ethylamino]-pyrimidin-4-yl}-2-ethoxy-benzoic acid], for which the pIC50 on PTGER4 (EP4) was 6.86; on EP2, 6.66; on EP4, 7.05; at PTGER2 (EP2) it was 6.27.

`CCOc1cc(-c2cc(NCCc3ccc4c(c3)OCC4)ncn2)sc1C(=O)O` [Ex 67, 5-{6-[2-(2,3-Dihydro-benzofuran-6-yl)-ethylamino]-pyrimidin-4-yl}-3-ethoxy-thiophene-2-carboxylic acid]: the negative-log IC50 (pIC50) at PTGER4 (EP4) was 7.40; at EP2, 6.96; against EP4, 7.44; at PTGER2 (EP2), 6.91.

`CCOc1cc(-c2cc(NCCc3cc4cccnc4cc3F)ncn2)sc1-c1nnn[nH]1` [Example 349, {6-[4-Ethoxy-5-(1H-tetrazol-5-yl)-thiophen-2-yl]-pyrimidin-4-yl}-[2-(7-fluoro-quinolin-6-yl)-ethyl]-amine]: the negative logarithm of the IC50 (pIC50) is 8.40 against PTGER4 (EP4), 6.99 against EP2, 7.85 on EP4 and 6.96 at PTGER2 (EP2).

On to `CCOc1cc(-c2cc(NCCc3ccc4ccccc4c3C)ncn2)ccc1C(=O)O` [Ex 172, 2-Ethoxy-4-{6-[2-(1-methyl-naphthalen-2-yl)-ethylamino]-pyrimidin-4-yl}-benzoic acid], for which the negative-log IC50 (pIC50) against PTGER4 (EP4) is 6.54; against EP2, 6.86; at EP4, 6.74; on PTGER2 (EP2), 6.80.

For the molecule `CCOc1cc(-c2cc(NCCc3c(F)c(F)c4cc(C)oc4c3OC)ncn2)sc1C(=O)O` [Ex 55, 5-{6-[2-(4,5-Difluoro-7-methoxy-2-methyl-benzofuran-6-yl)-ethylamino]-pyrimidin-4-yl}-3-ethoxy-thiophene-2-carboxylic acid], the pIC50 against PTGER4 (EP4) was 7.60; on EP2, 6.47; against EP4 it was 7.80; at PTGER2 (EP2), 6.07.

In the case of `COc1cc2occc2cc1CCNc1cc(-c2ccc(C(=O)O)c(OC3CCC3)c2)ncn1` [Ex 100, 2-Cyclobutoxy-4-{6-[2-(6-methoxy-benzofuran-5-yl)-ethylamino]-pyrimidin-4-yl}-benzoic acid], the pIC50 was 6.75 against PTGER4 (EP4), 7.54 against EP2, 7.17 against EP4 and 7.46 on PTGER2 (EP2).

The record behind these values is patent US11839613B2, “Pyrimidine derivatives as PGE2 receptor modulators” (IDORSIA PHARMACEUTICALS LTD, priority 2017, dated 2023).
